In patent US20230312528A1, “2-OXO-IMIDAZOLIDINE-4-CARBOXAMIDES AS NAV1.8 INHIBITORS” (Merck Sharp & Dohme LLC, priority 2020, published 2023) one finds IC50 data, which are given here for 23 compounds.

A word on the IC50: it is the point on the concentration scale where inhibition reaches its midpoint. High values mean lower potency, low ones higher potency.

Chain of human NaV1.8 (Q9Y5Y9 whole entry): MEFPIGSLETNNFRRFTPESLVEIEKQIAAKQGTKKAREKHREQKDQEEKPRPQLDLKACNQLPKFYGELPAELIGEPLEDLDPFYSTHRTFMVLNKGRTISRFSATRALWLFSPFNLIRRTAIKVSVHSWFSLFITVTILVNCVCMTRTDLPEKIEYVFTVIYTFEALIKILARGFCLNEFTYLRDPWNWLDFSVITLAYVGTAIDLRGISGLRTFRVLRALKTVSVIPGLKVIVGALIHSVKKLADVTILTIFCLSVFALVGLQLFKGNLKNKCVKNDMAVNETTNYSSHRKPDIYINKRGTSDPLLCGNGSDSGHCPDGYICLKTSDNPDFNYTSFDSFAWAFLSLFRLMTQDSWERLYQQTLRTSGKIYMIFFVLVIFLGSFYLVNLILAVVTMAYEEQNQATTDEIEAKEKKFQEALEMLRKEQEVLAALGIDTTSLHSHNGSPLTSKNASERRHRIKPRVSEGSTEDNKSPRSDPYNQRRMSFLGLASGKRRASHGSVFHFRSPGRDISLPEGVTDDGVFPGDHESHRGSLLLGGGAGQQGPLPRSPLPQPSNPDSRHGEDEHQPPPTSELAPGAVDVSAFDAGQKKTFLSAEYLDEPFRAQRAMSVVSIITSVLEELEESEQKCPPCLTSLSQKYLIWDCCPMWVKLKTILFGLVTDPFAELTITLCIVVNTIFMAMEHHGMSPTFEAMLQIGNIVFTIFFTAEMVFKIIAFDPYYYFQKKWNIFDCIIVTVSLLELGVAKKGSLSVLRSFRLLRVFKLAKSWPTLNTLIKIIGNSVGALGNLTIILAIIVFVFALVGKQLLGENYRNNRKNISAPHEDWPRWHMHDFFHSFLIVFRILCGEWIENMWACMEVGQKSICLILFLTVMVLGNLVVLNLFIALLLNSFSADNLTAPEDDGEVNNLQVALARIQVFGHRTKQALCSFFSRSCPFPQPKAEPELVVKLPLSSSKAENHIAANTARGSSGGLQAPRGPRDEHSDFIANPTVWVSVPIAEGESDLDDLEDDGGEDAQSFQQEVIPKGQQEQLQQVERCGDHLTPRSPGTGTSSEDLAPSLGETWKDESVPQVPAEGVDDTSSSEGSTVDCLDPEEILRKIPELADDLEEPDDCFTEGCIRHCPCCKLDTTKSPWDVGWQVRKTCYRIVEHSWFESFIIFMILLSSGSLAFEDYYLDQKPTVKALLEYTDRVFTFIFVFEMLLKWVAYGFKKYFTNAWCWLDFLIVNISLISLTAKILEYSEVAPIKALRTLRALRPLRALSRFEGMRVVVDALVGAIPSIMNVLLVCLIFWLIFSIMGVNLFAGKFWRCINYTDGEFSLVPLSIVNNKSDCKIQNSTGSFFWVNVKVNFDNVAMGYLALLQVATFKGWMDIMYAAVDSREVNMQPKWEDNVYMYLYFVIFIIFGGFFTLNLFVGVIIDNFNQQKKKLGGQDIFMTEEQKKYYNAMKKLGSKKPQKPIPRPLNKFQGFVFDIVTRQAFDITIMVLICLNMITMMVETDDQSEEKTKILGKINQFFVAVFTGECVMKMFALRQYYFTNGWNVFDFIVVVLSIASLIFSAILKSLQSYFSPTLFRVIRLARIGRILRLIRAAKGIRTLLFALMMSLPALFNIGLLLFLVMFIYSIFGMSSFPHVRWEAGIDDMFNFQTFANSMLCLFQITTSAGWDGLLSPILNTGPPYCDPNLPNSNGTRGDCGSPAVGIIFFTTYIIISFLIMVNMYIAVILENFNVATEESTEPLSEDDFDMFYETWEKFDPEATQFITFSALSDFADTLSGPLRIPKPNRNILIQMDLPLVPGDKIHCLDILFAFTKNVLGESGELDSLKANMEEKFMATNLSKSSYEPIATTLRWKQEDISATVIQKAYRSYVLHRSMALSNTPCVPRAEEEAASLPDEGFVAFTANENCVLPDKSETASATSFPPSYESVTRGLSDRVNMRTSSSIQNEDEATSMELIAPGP

The assay addresses human NaV1.8 (Homo sapiens (Human), UniProt Q9Y5Y9). The assay is described as follows: Nav1.8 Qube automated patch-clamp assay. It counts as cell-based. To be noted: human NaV1.8 stably expressed in HEK 293 cells; automated 384-well patch-clamp; resting or inactivated state not specified. In a few lines:
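IC50 values from Hill-equation fits of offline percent inhibition: the 1st pulse gave resting and the 10th pulse inactivated-state inhibition. Stimulus was a 10 s, 1 Hz train to 10 mV (holding −90 mV, −67 mV interpulse) applied at room temperature to HEK293 cells stably expressing human NaV1.8 (Qube).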
A general note: The patch-clamp technique gives a direct electrical read-out from membranes.
`CC1(C)CC(C(NC(=O)[C@@H]2CNC(=O)N2)c2ccc(Cl)cc2)CCN1CC(F)(F)F` (single isomer, unassigned) [Example 91B, (4S)—N—((R or S)(4-chlorophenyl)((R or S)2,2-dimethyl-1-(2,2,2-trifluoroethyl)piperidin-4-yl)methyl)-2-oxoimidazolidine-4-carboxamide] gave a 50% inhibitory concentration (IC50) of 899 nM.
Next, `O=C1NC[C@@H](C(=O)NC(c2ccc(Cl)cc2)c2ccc3cn[nH]c3c2)N1` (single isomer, unassigned) [Example 82A, (S)-N-((R or S)-(4-chlorophenyl)(1H-indazol-6-yl)methyl)-2-oxoimidazolidine-4-carboxamide]: 255 nM; `O=C1NC[C@@H](C(=O)NC(CCc2ccc(Cl)cc2)c2ccc(F)c(Cl)c2F)N1` (single isomer, unassigned) [Example 52A, (4S)—N—((R or S)-1-(3-chloro-2,4-difluorophenyl)-3-(4-chlorophenyl)propyl)-2-oxoimidazolidine-4-carboxamide]: 46 nM.
Next, `O=C1NC[C@@H](C(=O)NC(c2ccc(F)c(Cl)c2)c2cc(C(F)(F)F)[nH]n2)N1` (single isomer, unassigned) [Example 4A, (S)—N—((R or S)-(3-chloro-4-fluorophenyl)(5-(trifluoromethyl)-1H-pyrazol-3-yl)methyl)-2-oxoimidazolidine-4-carboxamide]: 203 nM; `O=C1NC[C@@H](C(=O)NC(c2cnc(OCC(F)(F)F)cn2)c2ccc(F)c(Cl)c2F)N1` (single isomer, unassigned) [Example 51B, N—((R or S)-(3-chloro-2,4-difluorophenyl)(5-(2,2,2-trifluoroethoxy)pyrazin-2-yl)methyl)-2-oxoimidazolidine-4-carboxamide]: 166 nM.
Next, `O=C1NC[C@@H](C(=O)NC(c2ccc(F)c(Cl)c2)c2csc(C3(C(F)(F)F)CC3)n2)N1` (single isomer, unassigned) [Example 16B, (S)-N-((R or S)-(3-chloro-4-fluoro-phenyl)(2-(1-(trifluoromethyl)cyclopropyl)thiazol-4-yl)methyl)-2-oxoimidazolidine-4-carboxamide]: 14 nM; `O=C1NC[C@@H](C(=O)NC(c2ccc(F)c(Cl)c2F)C2COC(C(F)(F)F)C2)N1` (single isomer, unassigned) [Example 79E, (S)-N-((R or S)-(3-chloro-2,4-difluoro-phenyl)((cis or trans)-5-(trifluoromethyl)tetrahydrofuran-3-yl)methyl)-2-oxoimidazolidine-4-carboxamide]: 49 nM.
Turning to `O=C1NC[C@@H](C(=O)NC(c2cnc(OC(F)F)nc2)c2ccc(F)c(Cl)c2F)N1` (single isomer, unassigned) [Example 64A, (S)-N-((R or S)-(3-chloro-2,4-difluorophenyl)(2-(difluoromethoxy)pyrimidin-5-yl)methyl)-2-oxoimidazolidine-4-carboxamide], it took 79 nM to reach half-maximal inhibition (IC50).
Next, `O=C(NC(c1ccc(Cl)cc1)c1ccc(Cl)cc1)C1CNC(=O)N1CCO` (single isomer, unassigned) [Example 21A, (R or S)—N-(bis(4-chlorophenyl)methyl)-3-(2-hydroxyethyl)-2-oxoimidazolidine-4-carboxamide]: 209 nM; `O=C(NC(c1ccc(Cl)cc1)c1ccc(Cl)cc1)C1CNC(=O)N1CCO` (single isomer, unassigned) [Example 21B, (R or S)—N-(bis(4-chlorophenyl)methyl)-3-(2-hydroxyethyl)-2-oxoimidazolidine-4-carboxamide]: 14700 nM; `O=C1NC[C@@H](C(=O)NC(c2ccc(OC(F)(F)F)cc2)c2ccc3c(c2)C(F)(F)C3)N1` (single isomer, unassigned) [Example 89, (S)—N—((R or S)-(8,8-difluorobicyclo[4.2.0]octa-1(6),2,4-trien-3-yl)(4-(trifluoromethoxy)phenyl)methyl)-2-oxoimidazolidine-4-carboxamide]: 4.9 nM.
Next, `O=C1NC[C@@H](C(=O)NC(c2ccc(Cl)cc2)c2cccc(OC(F)F)n2)N1` (single isomer, unassigned) [Example 74B, (S)-N-((R or S)-(4-chlorophenyl)(6-(difluoromethoxy)pyridin-2-yl)methyl)-2-oxoimidazolidine-4-carboxamide]: 244 nM; `O=C1NC[C@@H](C(=O)NC(CC2CCC(C(F)(F)F)CC2)c2ccc(F)c(Cl)c2F)N1` (single isomer, unassigned) [Example 23A, (S)—N—((R or S)-1-(3-chloro-2,4-difluorophenyl)-2-((cis or trans)-4-(trifluoromethyl)cyclohexyl)ethyl)-2-oxoimidazolidine-4-carboxamide]: 15 nM.
Next, `O=C1NC[C@@H](C(=O)NC(c2cnc(OCC(F)(F)F)s2)c2ccc(F)c(Cl)c2F)N1` (single isomer, unassigned) [Example 35A, (S)-N-((R or S)-(3-chloro-2,4-difluorophenyl)(2-(2,2,2-trifluoroethoxy)thiazol-5-yl)methyl)-2-oxoimidazolidine-4-carboxamide]: 2.4 nM; `O=C1NC[C@@H](C(=O)NC(c2ccc(F)c(Cl)c2)[C@@H]2CC[C@H]2C(F)(F)F)N1` (single isomer, unassigned) [Example 67B, (S)-N-((R or S)-(3-chloro-4-fluoro-phenyl)(trans-2-(trifluoromethyl)cyclobutyl)methyl)-2-oxoimidazolidine-4-carboxamide]: 965 nM.
In the case of `O=C1NC[C@@H](C(=O)NC(c2ccc(Cl)cc2)c2ccc3ncsc3c2)N1` (mixture of isomers) [Example 81, (4S)-N-(benzo[d]thiazol-6-yl(4-chlorophenyl)methyl)-2-oxoimidazolidine-4-carboxamide], the IC50 is 54 nM.
With `CN1CC(C(=O)NC(c2ccc(Cl)cc2)c2ccc(Cl)cc2)NC1=O` (single isomer, unassigned) [Example 10A, (R or S)-N-[bis(4-chlorophenyl)methyl]-1-methyl-2-oxoimidazolidine-4-carboxamide], the midpoint of inhibition, the IC50, lay at 1070 nM.
As for `C[C@@H]1C[C@H](C(NC(=O)[C@@H]2CNC(=O)N2)c2ccc(F)c(Cl)c2)C[C@H](C)N1CC(F)(F)F` (single isomer, unassigned) [Example 15A, (S)-N-((R or S)-(3-chloro-4-fluoro-phenyl)(cis-2,6-dimethyl-1-(2,2,2-trifluoroethyl)piperidin-4-yl)methyl)-2-oxoimidazolidine-4-carboxamide], the figure is 31 nM; as for `CN1CCC(C(NC(=O)[C@@H]2CNC(=O)N2)c2ccc(F)c(Cl)c2F)CC1C(F)(F)F` (single isomer, unassigned) [Example 78A, (S)-N-((R or S)-(3-chloro-2,4-difluoro-phenyl)((cis or trans)-1-methyl-2-(trifluoro-methyl)piperidin-4-yl)methyl)-2-oxoimidazolidine-4-carboxamide], 4070 nM; as for `O=C1NC[C@@H](C(=O)NC(c2ccc(OC(F)(F)F)cc2)c2ccc(F)c(C(F)(F)F)n2)N1` (single isomer, unassigned) [Example 7A, (S)—N—((R or S)-(5-fluoro-6-(trifluoromethyl)pyridin-2-yl)(4-(trifluoromethoxy)phenyl)-methyl)-2-oxoimidazolidine-4-carboxamide], 1.1 nM.
Next, `CS(=O)(=O)c1ccc(C(NC(=O)[C@@H]2CNC(=O)N2)c2ccc(F)c(Cl)c2)cc1` (single isomer, unassigned) [Example 85B, (S)-N-((R or S)-(3-chloro-4-fluorophenyl)(4-(methylsulfonyl)phenyl)methyl)-2-oxoimidazolidine-4-carboxamide]: 1280 nM; `O=C1NC[C@@H](C(=O)NC(c2ccc(F)c(Cl)c2)C2Cc3c(Cl)cccc32)N1` (single isomer, unassigned) [Example 70D, (S)-N-((R or S)-(3-chloro-4-fluoro-phenyl)((R or S)-2-chlorobicyclo[4.2.0]-octa-1(6),2,4-trien-7-yl)methyl)-2-oxoimidazolidine-4-carboxamide]: 650 nM.
As for `O=C1NC[C@@H](C(=O)NC(c2cnc(OC(F)F)s2)c2ccc(F)c(Cl)c2F)N1` (single isomer, unassigned) [Example 36B, (S)-N-((R or S)-(3-chloro-2,4-difluorophenyl)(2-(difluoromethoxy)thiazol-5-yl)methyl)-2-oxoimidazolidine-4-carboxamide], the figure is 186 nM.
